Laboratory results reported in article PMC7822874, “Chemoprotective antimalarials identified through quantitative high-throughput screening of Plasmodium blood and liver stage parasites” (Scientific Reports, 2021).

Columns and labels:
Assay type in all cases: cell-based, Plasmodium falciparum
[1] = system: P. falciparum Dd2 (clone B2) asexual blood stage parasites; experiment: P. falciparum Dd2 asexual blood stage SYBR Green-I 72 h proliferation assay (qHTS); conditions: Plasmodium falciparum, DD2, Dd2 parental; Hill fit, averaged from three independent replicates; top concentration 29 µM; read-out: Average AC50 (Log[M]), Dd2 (converted)
[2] = system: P. falciparum Dd2 Cytb G131S; experiment: SYBR Green ABS proliferation assay, NCGC00374598 selected clone C11; conditions: Plasmodium falciparum, DD2, […]; averaged from three independent replicates; top concentration 29 µM; read-out: Average AC50 (Log[M]), NCGC00374598 clone C11 (Cytb G131S) (converted)
In short: (§1)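 72 h SYBR Green-I read; % response = relative growth vs controls. Clones from resistance selection, cloned by limiting dilution; 37 °C, 5% CO2/5% O2/90% N2.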

[3] = system: P. falciparum Dd2 Cytb V259L; experiment: SYBR Green ABS proliferation assay, NCGC00473217 selected clone F06; conditions: Plasmodium falciparum, DD2, […]; averaged from three independent replicates; top concentration 29 µM; read-out: Average AC50 (Log[M]), NCGC00473217 clone F06 (Cytb V259L) (converted)
In short: as §1

[4] = system: P. falciparum Dd2 Cytb A122D; experiment: SYBR Green ABS proliferation assay, NCGC00473217 selected clone F12; conditions: Plasmodium falciparum, DD2, […]; averaged from three independent replicates; top concentration 29 µM; read-out: Average AC50 (Log[M]), NCGC00473217 clone F12 (Cytb A122D) (converted)
In short: as §1

[5] = system: P. falciparum Dd2 Cytb F123L; experiment: SYBR Green ABS proliferation assay, NCGC00473217 selected clone G08; conditions: Plasmodium falciparum, DD2, […]; averaged from three independent replicates; top concentration 29 µM; read-out: Average AC50 (Log[M]), NCGC00473217 clone G08 (Cytb F123L) (converted)
In short: as §1

Row | Structure (SMILES) | AC50 [1] [M] | AC50 [2] [M] | AC50 [3] [M] | AC50 [4] [M] | AC50 [5] [M]
1 | CCCN1C(CC(C)C)=N[S+](=O)([O-])c2cc(NC(=O)C3CCCC3)ccc21 [NCGC00521158-01] | 2.72e-06 | 4.15e-06 | 2.16e-06 | 5.22e-06 | 1.17e-05
2 | CCCN1C(CC(C)C)=N[S+](=O)([O-])c2cc(NC(=O)c3ccc4ccccc4n3)ccc21 [NCGC00521161-01] | 5.97e-06 | 7.96e-07 | 2.24e-06 | 3.99e-06 | 2.82e-06
3 | CCCN1C(CC(C)C)=N[S+](=O)([O-])c2cc(NC(=O)c3cc4ccncc4[nH]3)ccc21 [NCGC00521877-01] | 2.24e-06 | 1.42e-06 | 7.67e-07 | 7.67e-07 | 9.29e-07
4 | CCCN1C(CC(C)C)=N[S+](=O)([O-])c2cc(NC(=O)Nc3ccccc3)ccc21 [NCGC00521878-01] | 3.56e-06 | 7.96e-06 | 1.04e-05 | 8.28e-06 | 1.59e-05
5 | CCCN1C(CC(C)C)=N[S+](=O)([O-])c2cc(NC(=O)c3cc4ccccc4s3)ccc21 [NCGC00521881-01] | 1.65e-05 | 1.42e-05 | 6.84e-06 | 4.48e-06 | 7.1e-06
6 | CCCN1C(CC(C)C)=N[S+](=O)([O-])c2cc(NC(=O)C34CC5CC(CC(C5)C3)C4)ccc21 [NCGC00521891-01] | 3.56e-06 | 2.82e-07 | 1.12e-06 | 1.89e-06 | 1e-06
7 | CCCN1C(CC(C)C)=N[S+](=O)([O-])c2cc(NC(=O)c3ccc(Cl)s3)ccc21 [NCGC00523535-01] | 1.53e-06 | 1e-06 | 7.1e-06 | 5.86e-06 | 9.66e-06
8 | CCCN1C(CC(C)C)=N[S+](=O)([O-])c2cc(NC(=O)c3ccc(F)s3)ccc21 [NCGC00523537-01] | 1.12e-07 | 3.17e-07 | 8.93e-07 | 7.96e-07 | 3.85e-06
9 | CCCN1C(CC(C)C)=N[S+](=O)([O-])c2cc(NC(=O)c3cccc(F)c3)ccc21 [NCGC00523538-01] | 3.85e-06 | 2.08e-06 | 1e-06 | 2.72e-06 | 1.12e-05
10 | CCCN1C(CC(C)C)=N[S+](=O)([O-])c2cc(NC(=O)c3ccccc3F)ccc21 [NCGC00523540-01] | 4.66e-06 | 4.48e-06 | 2.16e-06 | 2.82e-06 | 2.72e-06
11 | CCCN1C(CC(C)C)=N[S+](=O)([O-])c2cc(NC(=O)c3sccc3F)ccc21 [NCGC00523542-01] | 1.59e-06 | 1.78e-06 | 5.43e-06 | 1.31e-06 | 7.52e-06
12 | CCCN1C(CC(C)C)=N[S+](=O)([O-])c2cc(NC(=O)c3ccc(F)cc3F)ccc21 [NCGC00523543-01] | 3.99e-06 | 2e-06 | 3.36e-06 | 1.93e-06 | 3.56e-07
13 | CCCN1C(CC(C)C)=N[S+](=O)([O-])c2cc(NC(=O)c3cc(F)cc(F)c3)ccc21 [NCGC00523544-01] | 5.43e-06 | 5.02e-06 | 7.1e-06 | 9.66e-06 | 1.08e-05
14 | CCCN1C(CC(C)C)=N[S+](=O)([O-])c2cc(NC(=O)c3sccc3Cl)ccc21 [NCGC00531529-01] | 2.24e-06 | 5.86e-07 | 3.7e-06 | 6.1e-07 | 2.24e-06
15 | CCCN1C(CC(C)C)=N[S+](=O)([O-])c2cc(NC(=O)c3ccccc3OC(F)(F)F)ccc21 [NCGC00531535-01] | 1.59e-05 | 8.93e-06 | 9.29e-06 | 1.08e-05 | 1.04e-05
16 | CCCN1C(CC(C)C)=N[S+](=O)([O-])c2cc(NC(=O)c3c(F)cccc3F)ccc21 [NCGC00531536-01] | 1.59e-05 | 1.22e-05 | 1.22e-05 | 1e-05 | 5.64e-06
17 | CCCN1C(CC(C)C)=N[S+](=O)([O-])c2cc(NC(=O)c3cccc(OC(F)(F)F)c3)ccc21 [NCGC00531537-01] | 1.12e-05 | 1.12e-05 | 3.99e-06 | 1e-05 | 7.96e-06
18 | CCCN1C(CC(C)C)=N[S+](=O)([O-])c2cc(NC(=O)c3ccc(Cl)c(Cl)c3)ccc21 [NCGC00531756-01] | 2e-05 | 5.97e-06 | 7.38e-06 | 8.93e-06 | 1.42e-05
